Test: xn = mol fraction of the nth substance listed
Conditions: 101 kPa, Liquid; for viscosity: Falling or rolling sphere viscometry; for mass density: Vibrating tube method

CCCC(=O)OCC [ethyl butanoate] + CC(C)CCO
Conditions	mass density [kg/m3]	viscosity [mPa·s]
288.15 K, x1 = 0.1001	820.68	3.238
288.15 K, x1 = 0.2	828.59	2.255
288.15 K, x1 = 0.3	836.24	1.754
288.15 K, x1 = 0.4	843.64	1.414
288.15 K, x1 = 0.5	850.77	1.184
288.15 K, x1 = 0.6	857.71	1.031
288.15 K, x1 = 0.7	864.47	0.9059
288.15 K, x1 = 0.7999	871.18	0.8213
288.15 K, x1 = 0.8995	877.79	0.7679
288.15 K, x1 = 1	884.16	0.7224
293.15 K, x1 = 0.1001	816.74	2.813
293.15 K, x1 = 0.2	824.48	2
293.15 K, x1 = 0.3	831.95	1.575
293.15 K, x1 = 0.4	839.17	1.285
293.15 K, x1 = 0.5	846.15	1.086
293.15 K, x1 = 0.6	852.95	0.953
293.15 K, x1 = 0.7	859.56	0.8432
293.15 K, x1 = 0.7999	866.14	0.7689
293.15 K, x1 = 0.8995	872.63	0.7214
293.15 K, x1 = 1	878.9	0.6808
298.15 K, x1 = 0.1001	812.8	2.462
298.15 K, x1 = 0.2	820.34	1.785
298.15 K, x1 = 0.3	827.63	1.422
298.15 K, x1 = 0.4	834.7	1.172
298.15 K, x1 = 0.5	841.51	0.9993
298.15 K, x1 = 0.6	848.16	0.8831
298.15 K, x1 = 0.7	854.64	0.7864
298.15 K, x1 = 0.7999	861.09	0.7207
298.15 K, x1 = 0.8995	867.46	0.6784
298.15 K, x1 = 1	873.62	0.643
303.15 K, x1 = 0.1001	808.84	2.164
303.15 K, x1 = 0.2	816.19	1.598
303.15 K, x1 = 0.3	823.31	1.288
303.15 K, x1 = 0.4	830.2	1.073
303.15 K, x1 = 0.5	836.86	0.9221
303.15 K, x1 = 0.6	843.37	0.8204
303.15 K, x1 = 0.7	849.71	0.7345
303.15 K, x1 = 0.7999	856.02	0.6764
303.15 K, x1 = 0.8995	862.27	0.6389
303.15 K, x1 = 1	868.33	0.6072
308.15 K, x1 = 0.1001	804.86	1.914
308.15 K, x1 = 0.2	812.02	1.439
308.15 K, x1 = 0.3	818.96	1.172
308.15 K, x1 = 0.4	825.69	0.9851
308.15 K, x1 = 0.5	832.19	0.853
308.15 K, x1 = 0.6	838.55	0.7639
308.15 K, x1 = 0.7	844.75	0.6872
308.15 K, x1 = 0.7999	850.94	0.6355
308.15 K, x1 = 0.8995	857.07	0.6026
308.15 K, x1 = 1	863.02	0.5736
313.15 K, x1 = 0.1001	800.85	1.7
313.15 K, x1 = 0.2	807.82	1.302
313.15 K, x1 = 0.3	814.58	1.069
313.15 K, x1 = 0.4	821.15	0.9071
313.15 K, x1 = 0.5	827.5	0.7907
313.15 K, x1 = 0.6	833.71	0.7128
313.15 K, x1 = 0.7	839.78	0.6437
313.15 K, x1 = 0.7999	845.83	0.5975
313.15 K, x1 = 0.8995	851.85	0.569
313.15 K, x1 = 1	857.7	0.5425
318.15 K, x1 = 0.1001	796.81	1.516
318.15 K, x1 = 0.2	803.6	1.181
318.15 K, x1 = 0.3	810.18	0.9787
318.15 K, x1 = 0.4	816.58	0.8373
318.15 K, x1 = 0.5	822.78	0.7346
318.15 K, x1 = 0.6	828.85	0.6658
318.15 K, x1 = 0.7	834.78	0.6038
318.15 K, x1 = 0.7999	840.71	0.5626
318.15 K, x1 = 0.8995	846.61	0.538
318.15 K, x1 = 1	852.36	0.5132
323.15 K, x1 = 0.1001	792.73	1.371
323.15 K, x1 = 0.2	799.34	1.08
323.15 K, x1 = 0.3	805.76	0.8983
323.15 K, x1 = 0.4	811.99	0.7743
323.15 K, x1 = 0.5	818.03	0.6838
323.15 K, x1 = 0.6	823.96	0.6195
323.15 K, x1 = 0.7	829.75	0.5672
323.15 K, x1 = 0.7999	835.56	0.5303
323.15 K, x1 = 0.8995	841.34	0.5071
323.15 K, x1 = 1	847	0.487
